Results published in patent US20260209250A1, “CRYSTAL FORM OF KRAS G12D INHIBITOR AND PREPARATION METHOD THEREFOR” (priority 2022, published 2026).

Columns and labels:
[1] = Crystal form stability study (influencing factor experiments); type: physicochemical; details: for Physical and chemical properties (conclusion of influencing factor experiments): high temperatures and high humidities for 30 days
Protocol: Samples of the crystal forms A, B, C, I, J, and K of the compound represented by formula (I) were taken, spread in open containers, and left to stand under conditions of light exposure (4500 Lux), high temperatures (40° C. and 60° C.), and high humidities (RH 75% and RH 92.5%) for 30 days to investigate their stability, and the results are shown in Table 16.

[2] = Long-term/accelerated stability; type: physicochemical
[3] = 40° C., 10 days, open container
[4] = 40° C., 30 days, open container
[5] = 60° C., 10 days, open container
[6] = 60° C., 30 days, open container
[7] = 75% RH, 10 days, open container
[8] = 75% RH, 30 days, open container
[9] = 92.5% RH, 5 days, open container
[10] = 92.5% RH, 10 days, open container
[11] = 92.5% RH, 30 days, open container
[12] = light exposure (4500 Lux), 5 days, open container
[13] = light exposure (4500 Lux), 10 days, open container
[14] = light exposure (4500 Lux), 30 days, open container

## CCc1c(F)ccc2cc(O)cc(-c3nc4c5c(nc(OC[C@@]67CCCN6C[C@H](F)C7)nc5c3F)N3C[C@H]5CC[C@H](N5)[C@H]3CO4)c12 [Crystal form C, 5-Ethyl-6-fluoro-4-((5aS,6S,9R)-1-fluoro-12-(((2R,7aS)-2-fluorotetrahydro-1H-pyrrolizin-7a(5H)-yl)methoxy)-5a,6,7,8,9,10-hexahydro-5H-4-oxa-3,10a,11,13,14-pentaaza-6,9-methanonaphtho[1,8-ab]heptalen-2-yl)naphthalen-2-ol]
[1]; 40° C., 5 days, open container
  Color and state: Off-white solid
  Crystal form: Did not change
  Purity %: 99.3%
[1]; [3]
  Color and state: Off-white solid
  Crystal form: Did not change
  Purity %: 99.3%
[1]; [4]
  Color and state: Off-white solid
  Crystal form: Did not change
  Purity %: 98.5%
[1]; 60° C., 5 days, open container
  Color and state: Off-white solid
  Crystal form: Did not change
  Purity %: 99.0%
[1]; [5]
  Color and state: Off-white solid
  Crystal form: Did not change
  Purity %: 99.0%
[1]; [6]
  Color and state: Off-white solid
  Crystal form: Did not change
  Purity %: 97.9%
[1]; 75% RH, 5 days, open container
  Color and state: Off-white solid
  Crystal form: Did not change
  Purity %: 99.6%
[1]; [7]
  Color and state: Off-white solid
  Crystal form: Did not change
  Purity %: 99.6%
[1]; [8]
  Color and state: Off-white solid
  Crystal form: Did not change
  Purity %: 99.5%
[1]; [9]
  Color and state: Off-white solid
  Crystal form: Did not change
  Purity %: 99.6%
[1]; [10]
  Color and state: Off-white solid
  Crystal form: Did not change
  Purity %: 99.6%
[1]; [11]
  Color and state: Off-white solid
  Crystal form: Did not change
  Purity %: 99.4%
[1]; Initial, 0 days
  Color and state: Off-white solid
  Purity %: 99.7%
[1]
  Physical and chemical properties (conclusion of influencing factor experiments): good physical and chemical properties
[1]; [12]
  Color and state: Off-white solid
  Crystal form: Did not change
  Purity %: 99.2%
[1]; [13]
  Color and state: Off-white solid
  Crystal form: Did not change
  Purity %: 98.7%
[1]; [14]
  Color and state: Pale yellow solid
  Crystal form: Did not change
  Purity %: 97.9%
[2]; 25° C./60% RH
  Purity % 1 month: 99.7%
  Purity % 2 months: 99.6%
  Purity % 3 months: 99.6%
  Purity % Initial: 99.7%
[2]; 40° C./75% RH
  Purity % 1 month: 99.5%
  Purity % 2 months: 99.4%
  Purity % 3 months: 99.2%
  Purity % Initial: 99.7%

## CCc1c(F)ccc2cc(O)cc(-c3nc4c5c(nc(OC[C@@]67CCCN6C[C@H](F)C7)nc5c3F)N3C[C@H]5CC[C@H](N5)[C@H]3CO4)c12 [Crystal form I, 5-Ethyl-6-fluoro-4-((5aS,6S,9R)-1-fluoro-12-(((2R,7aS)-2-fluorotetrahydro-1H-pyrrolizin-7a(5H)-yl)methoxy)-5a,6,7,8,9,10-hexahydro-5H-4-oxa-3,10a,11,13,14-pentaaza-6,9-methanonaphtho[1,8-ab]heptalen-2-yl)naphthalen-2-ol]
[1]; 40° C., 5 days, open container
  Color and state: Off-white solid
  Crystal form: Did not change
  Purity %: 99.6%
[1]; [3]
  Color and state: Off-white solid
  Crystal form: Did not change
  Purity %: 99.4%
[1]; [4]
  Color and state: Off-white solid
  Crystal form: Did not change
  Purity %: 99.3%
[1]; 60° C., 5 days, open container
  Color and state: Off-white solid
  Crystal form: Did not change
  Purity %: 99.6%
[1]; [5]
  Color and state: Off-white solid
  Crystal form: Did not change
  Purity %: 99.4%
[1]; [6]
  Color and state: Off-white solid
  Crystal form: Did not change
  Purity %: 99.3%
[1]; 75% RH, 5 days, open container
  Color and state: Off-white solid
  Crystal form: Did not change
  Purity %: 99.6%
[1]; [7]
  Color and state: Off-white solid
  Crystal form: Did not change
  Purity %: 99.6%
[1]; [8]
  Color and state: Off-white solid
  Crystal form: Did not change
  Purity %: 99.6%
[1]; [9]
  Color and state: Off-white solid
  Crystal form: Did not change
  Purity %: 99.5%
[1]; [10]
  Color and state: Off-white solid
  Crystal form: Did not change
  Purity %: 99.5%
[1]; [11]
  Color and state: Off-white solid
  Crystal form: Did not change
  Purity %: 99.6%
[1]; Initial, 0 days
  Color and state: Off-white solid
  Crystal form: Crystal form I
  Purity %: 99.6%
[1]
  Physical and chemical properties (conclusion of influencing factor experiments): good physical and chemical properties
[1]; [12]
  Color and state: Off-white solid
  Crystal form: Did not change
  Purity %: 99.6%
[1]; [13]
  Color and state: Off-white solid
  Crystal form: Did not change
  Purity %: 99.5%
[1]; [14]
  Color and state: Off-white solid
  Crystal form: Did not change
  Purity %: 99.2%
[2]; 25° C./60% RH
  Purity % 1 month: 99.6%
  Purity % 2 months: 99.6%
  Purity % 3 months: 99.6%
  Purity % Initial: 99.6%
[2]; 40° C./75% RH
  Purity % 1 month: 99.6%
  Purity % 2 months: 99.4%
  Purity % 3 months: 99.6%
  Purity % Initial: 99.6%
